In ChEMBL document CHEMBL1149441, “Cyclopropylamino acid amide as a pharmacophoric replacement for 2,3-diaminopyridine. Application to the design of novel bradykinin B1 receptor antagonists” (J Med Chem, 2006):

Columns and labels:
[1] = target: T1, B1 bradykinin receptor (Homo sapiens, UniProt P46663); assay: Binding affinity to human bradykinin B1 receptor expressed in CHO cells; type: cell-based
T1 sequence (P46663 whole entry): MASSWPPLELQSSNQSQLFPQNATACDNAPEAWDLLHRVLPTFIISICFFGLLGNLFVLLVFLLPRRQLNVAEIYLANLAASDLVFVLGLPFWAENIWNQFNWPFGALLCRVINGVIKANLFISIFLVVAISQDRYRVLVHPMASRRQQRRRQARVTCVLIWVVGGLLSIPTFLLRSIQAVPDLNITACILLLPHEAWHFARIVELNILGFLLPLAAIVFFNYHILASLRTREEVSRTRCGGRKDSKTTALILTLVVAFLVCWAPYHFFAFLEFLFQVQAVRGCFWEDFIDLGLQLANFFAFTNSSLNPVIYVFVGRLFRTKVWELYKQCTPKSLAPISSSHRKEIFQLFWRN

[2] = target: T2, B2 bradykinin receptor (Homo sapiens, UniProt P30411); assay: Binding affinity to bradykinin B2 receptor
T2 sequence (P30411 whole entry): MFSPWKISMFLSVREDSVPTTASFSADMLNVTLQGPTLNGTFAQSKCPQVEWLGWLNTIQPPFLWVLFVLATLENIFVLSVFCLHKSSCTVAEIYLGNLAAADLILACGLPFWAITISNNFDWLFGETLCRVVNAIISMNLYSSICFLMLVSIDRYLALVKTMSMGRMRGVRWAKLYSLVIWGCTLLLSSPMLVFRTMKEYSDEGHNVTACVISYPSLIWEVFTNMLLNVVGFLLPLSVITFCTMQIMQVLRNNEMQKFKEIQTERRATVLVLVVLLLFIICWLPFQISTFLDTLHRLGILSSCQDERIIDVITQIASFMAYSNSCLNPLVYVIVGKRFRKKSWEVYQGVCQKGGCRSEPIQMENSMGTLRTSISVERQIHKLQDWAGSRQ

[3] = Oral bioavailability in rat; type: ADME, organism-based; conditions: in vivo
[4] = Clearance in iv dosed rat; type: ADME, organism-based; conditions: in vivo
[5] = Half life in iv dosed rat; type: ADME, organism-based; conditions: in vivo

Compound: COC(=O)c1ccccc1-c1ccc(CNC(=O)CNC(=O)CC(F)(F)F)cc1
- Ki [1]: 52 µM
- Ki [2]: > 10 µM

Compound: COC(=O)c1ccccc1-c1ccc(CNC(=O)C2(NC(=O)CC(F)(F)F)CCC2)cc1
- Ki [1]: 0.119 µM
- Ki [2]: > 10 µM

Compound: COC(=O)c1ccccc1-c1ccc(CNC(=O)[C@@H](C)NC(=O)CC(F)(F)F)cc1
- Ki [1]: 1.58 µM
- Ki [2]: > 10 µM

Compound: COC(=O)c1ccccc1-c1ccc(CNC(=O)C2(NC(=O)c3cncnc3)CC2)cc1
- Ki [1]: 0.0255 µM
- Ki [2]: > 10 µM

Compound: COC(=O)c1ccccc1-c1ccc(CNC(=O)C(C)(C)NC(=O)CC(F)(F)F)cc1
- bioavailability [3]: 35%
- clearance [4]: 4.2 mL/min/kg
- half-life [5]: 6.6 h
- Ki [2]: > 10 µM

Compound: COC(=O)c1ccccc1-c1ccc(CNC(=O)C2(NC(=O)CC(F)(F)F)CCCC2)cc1
- Ki [1]: 0.462 µM
- Ki [2]: > 10 µM

Compound: COC(=O)c1ccccc1-c1ccc(CNc2ncccc2NC(=O)CC(F)(F)F)cc1
- half-life [5]: 0.15 h
- Ki [2]: > 10 µM

Compound: COC(=O)c1ccccc1-c1ccc(CNC(=O)C2(NC(=O)CC(F)(F)F)CC2)cc1
- bioavailability [3]: 26%
- clearance [4]: 9.3 mL/min/kg
- half-life [5]: 9.5 h
- Ki [2]: > 10 µM

Compound: COC(=O)c1ccccc1-c1ccc(CNC(=O)C2(NC(=O)CC(F)(F)F)CCCCC2)cc1
- bioavailability [3]: 25%
- clearance [4]: 2.6 mL/min/kg
- half-life [5]: 12 h
- Ki [1]: 0.752 µM
- Ki [2]: > 10 µM

Compound: COC(=O)c1ccccc1-c1ccc(CNC(=O)C2(NC(=O)c3cncc(C(F)(F)F)c3)CC2)cc1
- Ki [1]: 0.0018 µM
- Ki [2]: > 10 µM

Compound: COC(=O)c1ccccc1-c1ccc(CNC(=O)[C@H](C)NC(=O)CC(F)(F)F)cc1
- Ki [1]: > 50 µM
- Ki [2]: > 10 µM
